In patent US9314031B2, “Plant growth regulation” (SYNGENTA PARTICIPATIONS AG, priority 2012, dated 2016):

Columns and labels:
summer barley (Pasadena) = assay: Glasshouse trial, lodging of summer barley after leaf spray; assay type: in vivo; settings: for % lodging 30 days after spray application: Summer-barley Pasadena, spray at growth stage 30
Description: (§1) A glasshouse trial was setup to compare growth regulation effects of trinexapac-ethyl, seaweed extract, and mixtures of trinexapac-ethyl and seaweed extract at various rates, on both summer barley (Pasadena) and winter rye (Reknit).
(§2) Each treatment was applied as a spray to the leaves of the plant at plant growth stage 30 (start of stem elongation).

Winter-rye Rekrut = assay: Glasshouse trial, lodging of winter rye after leaf spray; assay type: in vivo; settings: for % lodging 30 days after spray application: Winter-rye Rekrut, spray at growth stage 30
Description: as §1, §2

[1] = tested on: soybeans (Toliman, S40-F8); assay: Glasshouse trial, Nitrogen Balance Index (Dualex) of soybeans after leaf spray; assay type: in vivo, soybean; settings: for Nitrogen Balance Index 8 days after spray application: spray at growth stage 12
Description: A glasshouse trial was setup to compare crop enhancement effects of trinexapac-ethyl, seaweed extract, and mixtures of trinexapac-ethyl and seaweed extract at various rates, on two varieties of soybeans (Toliman, S40-F8)
Each treatment was applied as a spray to the leaves of the plant at plant growth stage 12 (trifoliolate leaf on the 2nd node unfolded). Assessments of the Nitrogen Balance Index (NBI) were made 8 days after spray application using a Dualex (Force-A, Orsay Cedex) device; NBI is a measure used to estimate the nitrogen and protein status of a plant.

[2] = tested on: soybeans (Toliman, S40-F8); assay: Glasshouse trial, shoot length of soybeans after leaf spray; assay type: in vivo, soybean; settings: for Shoot length 11 days after spray application: spray at growth stage 12
Description: A glasshouse trial was setup to compare growth regulation effects of trinexapac-ethyl, seaweed extract, and mixtures of trinexapac-ethyl and seaweed extract at various rates, on two varieties of soybeans (Toliman, S40-F8).
Each treatment was applied as a spray to the leaves of the plant at plant growth stage 12 (trifoliolate leaf on the 2nd node unfolded).

[3] = treatment 1: Moddus 100 g AI/ha
[4] = treatment 2: Moddus 200 g AI/ha
[5] = Soybean var. S40-F8, treatment 1: Moddus 200 g AI/ha
[6] = Soybean var. S40-F8, treatment 2: Moddus 100 g AI/ha
[7] = Soybean var. S40-F8, treatment 3: Moddus 50 g AI/ha
[8] = Soybean var. Toliman, treatment 1: Moddus 200 g AI/ha
[9] = Soybean var. Toliman, treatment 2: Moddus 100 g AI/ha
[10] = Soybean var. Toliman, treatment 3: Moddus 50 g AI/ha

CCOC(=O)C1CC(=O)C(=C(O)C2CC2)C(=O)C1 (centres unmarked) [TXP, trinexapac-ethyl]
% lodging 30 days after spray application (summer barley (Pasadena); [3]): 10.0% | % lodging 30 days after spray application (summer barley (Pasadena); [4]): 6.7% | Effect on lodging, in words (summer barley (Pasadena); summer barley, summary of Table 3, all rates, compared to untreated control or TXP alone): reduces lodging compared to the control | % lodging 30 days after spray application (Winter-rye Rekrut; [3]): 6.7% | % lodging 30 days after spray application (Winter-rye Rekrut; [4]): 0.0% | Effect on lodging, in words (Winter-rye Rekrut; winter rye, summary of Table 3, all rates, compared to untreated control or TXP alone): reduces lodging compared to the control | Nitrogen Balance Index 8 days after spray application [1, 5]: 125.5 | Nitrogen Balance Index 8 days after spray application [1, 6]: 97.9 | Nitrogen Balance Index 8 days after spray application [1, 7]: 77.1 | Nitrogen Balance Index 8 days after spray application [1, 8]: 64.2 | Nitrogen Balance Index 8 days after spray application [1, 9]: 48.7 | Nitrogen Balance Index 8 days after spray application [1, 10]: 47.9 | Effect on NBI, in words ([1]; both soybean varieties, summary of Table 7, compared to untreated control or single components): increases NBI at high rate | Shoot length 11 days after spray application [2, 5]: 34.5 cm | Shoot length 11 days after spray application [2, 6]: 39.5 cm | Shoot length 11 days after spray application [2, 7]: 45.8 cm | Shoot length 11 days after spray application [2, 8]: 54.8 cm | Shoot length 11 days after spray application [2, 9]: 59.3 cm | Shoot length 11 days after spray application [2, 10]: 61.3 cm | Effect on plant length, in words ([2]; both soybean varieties, summary of Table 5, all rates, compared to untreated control or TXP alone): reduces plant length compared to the control
